The supplement of paper PMC10307832

Tests used:
Assay in all cases: relative viability (nuclei count vs DMSO), 5 days (fraction); higher = more cells survive
[1] = compound: CN(C)CC1=CC(=CC=C1)N=C(C2=CC=CC=C2)C3=C(NC4=C3C=CC(=C4)C(=O)N(C)C)O + CS(=O)(=O)CCNCc1ccc(-c2ccc3ncnc(Nc4ccc(OCc5cccc(F)c5)c(Cl)c4)c3c2)o1 [Lapatinib] (partner 2 µM)
Outline: (§1)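 Values are medians from duplicate plates. Each reflects relative viability, defined as the nuclei count of treated wells over that of vehicle wells. Lung cancer cell lines in 1536-well plates were pin-tool dosed one day after seeding with one drug alone or with a fixed anchor-drug dose plus five library-drug doses (not always all listed) in √10 steps, then fixed, stained and imaged at 4× after 5 days.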

[2] = compound: CN(C)CC1=CC(=CC=C1)N=C(C2=CC=CC=C2)C3=C(NC4=C3C=CC(=C4)C(=O)N(C)C)O + C[C@@H](Oc1cc(-c2cnn(C3CCNCC3)c2)cnc1N)c1c(Cl)ccc(F)c1Cl [Crizotinib] (partner 1 µM)
Outline: as §1

[3] = compound: CN(C)CC1=CC(=CC=C1)N=C(C2=CC=CC=C2)C3=C(NC4=C3C=CC(=C4)C(=O)N(C)C)O + Cc1nc(Nc2ncc(C(=O)Nc3c(C)cccc3Cl)s2)cc(N2CCN(CCO)CC2)n1 [Dasatinib] (partner 0.075 µM)
Outline: as §1

[4] = compound: CN(C)CC1=CC(=CC=C1)N=C(C2=CC=CC=C2)C3=C(NC4=C3C=CC(=C4)C(=O)N(C)C)O + Nc1nc2[nH]cc(CCc3ccc(C(=O)N[C@@H](CCC(=O)O)C(=O)O)cc3)c2c(=O)[nH]1 [Pemetrexed] (partner 0.2 µM)
Outline: as §1

| Cell Line | relative viability ([1]; first compound 0.08 µM) | relative viability ([1]; first compound 0.253 µM) | relative viability ([1]; first compound 0.8 µM) | relative viability ([1]; first compound 2.53 µM) | relative viability ([1]; first compound 8 µM) | relative viability ([2]; first compound 0.08 µM) | relative viability ([2]; first compound 0.253 µM) | relative viability ([2]; first compound 0.8 µM) | relative viability ([2]; first compound 2.53 µM) | relative viability ([2]; first compound 8 µM) | relative viability ([3]; first compound 0.08 µM) | relative viability ([3]; first compound 0.253 µM) | relative viability ([3]; first compound 0.8 µM) | relative viability ([3]; first compound 2.53 µM) | relative viability ([3]; first compound 8 µM) | relative viability ([4]; first compound 0.08 µM) | relative viability ([4]; first compound 0.253 µM) | relative viability ([4]; first compound 0.8 µM) | relative viability ([4]; first compound 2.53 µM) | relative viability ([4]; first compound 8 µM) |
| --- | --- | --- | --- | --- | --- | --- | --- | --- | --- | --- | --- | --- | --- | --- | --- | --- | --- | --- | --- | --- |
| A-427 | 1.03 | 1.06 | 1.09 | 1.03 | 1.1 | 0.984 | 0.82 | 0.865 | 0.855 | 0.719 | 0.741 | 0.698 | 0.653 | 0.791 | 0.679 | 1.06 | 0.993 | 1 | 0.955 | 0.926 |
| COR-L23 | 1.05 | 0.895 | 0.922 | 0.92 | 0.975 | 0.675 | 0.603 | 0.622 | 0.532 | 0.553 | 0.54 | 0.469 | 0.596 | 0.423 | 0.566 | 0.205 | 0.2 | 0.193 | 0.196 | 0.19 |
| NCI-H520 | 0.774 | 0.801 | 0.766 | 0.791 | 0.724 | 0.713 | 0.722 | 0.833 | 0.705 | 0.71 | 0.189 | 0.197 | 0.183 | 0.162 | 0.165 | 0.688 | 0.654 | 0.737 | 0.563 | 0.435 |
| NCI-H23 | 1.39 | 1.26 | 1.03 | 0.984 | 0.886 | 0.376 | 0.538 | 0.503 | 0.483 | 0.417 | 0.739 | 0.933 | 0.916 | 0.823 | 0.849 | – | 0.718 | 0.962 | 0.776 | 0.596 |
| EKVX | 0.196 | 0.294 | 0.205 | 0.224 | 0.23 | 0.842 | 0.921 | 1.03 | 0.879 | 0.981 | 0.523 | 0.465 | 0.56 | 0.535 | 0.573 | 0.41 | 0.362 | – | 0.396 | 0.418 |
| HCC-78 | 0.785 | 1.48 | 0.722 | 0.707 | 0.741 | 0.327 | 0.282 | 0.297 | 0.34 | 0.372 | 0.329 | 0.521 | 0.353 | 0.366 | 0.405 | 0.639 | 0.873 | 0.857 | 0.918 | 0.859 |
| NCI-H596 | 1.12 | 1.32 | 0.971 | 1.05 | 1.13 | 1 | 0.952 | 1.04 | 0.968 | 0.785 | 0.575 | 0.648 | 0.628 | 0.618 | 0.602 | 0.493 | 0.554 | 0.484 | 0.502 | 0.521 |
| UMC-11 | 1.1 | 0.963 | 0.969 | 0.891 | 0.846 | 0.62 | 0.711 | 0.662 | 0.468 | 0.588 | 0.507 | 0.414 | 0.45 | 0.445 | 0.407 | 0.779 | 0.752 | 0.839 | 0.714 | 0.736 |
| NCI-H460 | 1.1 | 0.967 | 1.04 | 0.776 | 0.741 | 0.824 | 0.811 | 0.998 | 0.819 | 0.733 | 0.669 | 0.558 | 0.736 | 0.387 | 0.398 | 0.0639 | 0.0794 | 0.0612 | 0.0522 | 0.0565 |
| EMC-BAC-2 | 0.927 | 0.914 | 0.953 | 0.898 | 0.878 | 0.725 | 0.772 | 0.804 | 0.753 | 0.681 | 0.358 | 0.388 | 0.308 | 0.348 | 0.318 | 0.437 | 0.445 | 0.582 | 0.435 | 0.508 |
| NCI-H1792 | 0.866 | 0.896 | 0.873 | 0.818 | 0.945 | 0.68 | 0.97 | 0.954 | 0.786 | 0.915 | 0.903 | 0.856 | 0.851 | 0.646 | 0.598 | 0.872 | 0.826 | 0.702 | 0.673 | 0.838 |
| NCI-H647 | 1.15 | 1.03 | 0.944 | 0.957 | 0.603 | 1.01 | 0.987 | 1.08 | 0.727 | 0.671 | 0.201 | 0.235 | 0.173 | 0.195 | 0.111 | 0.179 | 0.181 | 0.147 | 0.172 | 0.181 |
| H3255 | 0.25 | 0.31 | 0.235 | 0.222 | 0.292 | 0.958 | 0.782 | 0.756 | 0.795 | 0.85 | 0.342 | 0.337 | 0.316 | 0.381 | 0.339 | 0.592 | 0.52 | 0.543 | 0.592 | 0.592 |
| NCI-H1975 | 0.948 | 0.81 | 0.835 | 0.742 | 0.951 | 0.969 | 1.07 | 0.842 | 0.859 | 0.822 | 0.372 | 0.364 | 0.341 | 0.348 | 0.31 | 0.292 | 0.327 | 0.287 | 0.301 | 0.31 |
